Assay results: patent publication US20060069132A1, “Azolecarboxamide herbicides” (priority 2004, published 2006)

Key:
woolly cupgrass = experiment: Test C pre-/postemergence herbicide test; assay type: in vivo, Eriochloa villosa; settings: preemergence
Summary of the method: (§1)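 Visual injury scores run from 0 (no effect) to 100 (complete control), assessed relative to untreated controls 12 to 14 days after treatment in the greenhouse. Chemicals were formulated in a non-phytotoxic solvent mixture with surfactant and applied to soil after planting or to emerged plants at the 1- to 4-leaf stage.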

pigweed = experiment: Test C pre-/postemergence herbicide test; assay type: in vivo, Amaranthus retroflexus; settings: preemergence
Summary of the method: as §1

morningglory = experiment: Test C pre-/postemergence herbicide test; assay type: in vivo, Ipomoea coccinea; set-up: key to Plant response rating, Morningglory: 0 = no effect, 100 = complete control; settings: preemergence
Summary of the method: as §1

[1] = test system: common (oilseed) sunflower; experiment: Test C pre-/postemergence herbicide test; assay type: in vivo, Helianthus annuus; settings: preemergence
Source text: (§2) Seeds of plant species selected from bermudagrass (Cynodon dactylon (L.) Pers.), Surinam grass (Urochloa decumbens (Staph) R. D. Webster, previously named Brachiaria decumbens Stapf), cocklebur (Xanthium strumarium L.), corn (Zea mays L.), large crabgrass (Digitaria sanguinalis (L.) Scop.), woolly cupgrass (Eriochloa villosa (Thunb.) Kunth), giant foxtail (Setaria faberi Herrm.), goosegrass (Eleusine indica (L.) Gaertn.), johnsongrass (Sorghum halepense (L.) Pers.), kochia (Kochia scoparia (L.) Schrad.), lambsquarters (Chenopodium album L.), morningglory (Ipomoea coccinea L.), eastern black nightshade (Solanum ptycanthum Dunal), yellow nutsedge (Cyperus esculentus L.), pigweed (Amaranthus retroflexus L.), common ragweed (Ambrosia elatior L.), soybean (Glycine max (L.) Merr.), common (oilseed) sunflower (Helianthus annuus L.) and velvetleaf (Abutilon theophrasti Medik.) were planted and treated preemergence with test chemicals formulated in a non-phytotoxic solvent mixture which included a surfactant.
(§3) At the same time, plants selected from these crop and weed species and also winter barley (Hordeum vulgare L.), blackgrass (Alopecurus myosuroides Huds.), canarygrass (Phalaris minor Retz.), chickweed (Stellaria media (L.) Vill.), downy bromegrass (Bromus tectorum L.), green foxtail (Setaria viridis (L.) Beauv.), Italian ryegrass (Lolium multiflorum Lam.), wheat (Triticum aestivum L.), wild oat (Avenafatua L.) and windgrass (Apera spica-venti (L.) Beauv.) were treated with postemergence applications of some of the test chemicals formulated in the same manner. Plants ranged in height from 2 to 18 cm (1- to 4-leaf stage) for postemergence treatments. Plant species in the flooded paddy test consisted of rice (Oryza sativa), smallflower umbrella sedge (Cyperus difformis L.), ducksalad (Heteranthera limosa (Sw.) Willd.) and barnyardgrass (Echinochloa crus-galli (L.) Beauv.) grown to the 2-leaf stage for testing. Treated plants and controls were maintained in a greenhouse for 12 to 14 days, after which time all species were compared to controls and visually evaluated. Plant response ratings, summarized in Table C, are based on a scale of 0 to 100 where 0 is no effect and 100 is complete control. A dash (-) response means no test result.

large crabgrass = experiment: Test A pre-/postemergence herbicide test; assay type: in vivo, Digitaria sanguinalis
Summary of the method: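 Pre: seeded sandy loam, directed soil spray, compound in non-phytotoxic solvent + surfactant. Post: 1–2-leaf plants (2–10 cm), sprayed to runoff. Greenhouse ~10 d; visual injury vs untreated, 0–100 scale.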

eastern black nightshade = experiment: Test C pre-/postemergence herbicide test; assay type: in vivo, Solanum ptycanthum; settings: preemergence
Source text: as §2, §3

kochia = experiment: Test C pre-/postemergence herbicide test; assay type: in vivo, Kochia scoparia; settings: preemergence
Summary of the method: as §1

giant foxtail = experiment: Test C pre-/postemergence herbicide test; assay type: in vivo, Setaria faberi; settings: preemergence
Summary of the method: as §1

[2] = 125 g ai/ha, scale 0 (no effect) to 100 (complete control), visual, 12 to 14 days
[3] = 250 g ai/ha, scale 0 to 100 (0 no effect, 100 complete control), visual, 12 to 14 days
[4] = Postemergence, 500 g ai/ha, 0 to 100 scale, 0 no effect, 100 complete control
[5] = Postemergence, 2000 g ai/ha, 0 to 100 scale, 0 no effect, 100 complete control
[6] = 500 g ai/ha, scale 0 to 100 (0 no effect, 100 complete control), visual, 12 to 14 days

CCCCn1nc(C(C)(C)C)cc1C(=O)Nc1cccc(C(=O)NCC)c1 [Compound 41]
Plant response rating, Cupgrass, Woolly (woolly cupgrass; 31 g ai/ha, scale 0 to 100): 0
Plant response rating (0 = no effect, 100 = complete control), Cupgrass, Woolly (woolly cupgrass; 62 g ai/ha): 0
Plant response rating, Cupgrass, Woolly (woolly cupgrass; [2]): 0
Plant response rating, Cupgrass, Woolly (woolly cupgrass; [3]): 30
Plant response rating, Pigweed (pigweed; 31 g ai/ha, scale 0 to 100): 0
Plant response rating (0 = no effect, 100 = complete control), Pigweed (pigweed; 62 g ai/ha): 0
Plant response rating, Pigweed (pigweed; [2]): 90
Plant response rating, Pigweed (pigweed; [3]): 100
Plant response rating, Morningglory (morningglory; 31 g ai/ha, scale 0 to 100): 0
Plant response rating (0 = no effect, 100 = complete control), Morningglory (morningglory; 62 g ai/ha): 0
Plant response rating, Morningglory (morningglory; [2]): 0
Plant response rating, Morningglory (morningglory; [3]): 20
Plant response rating, Sunflower ([1]; 31 g ai/ha, scale 0 to 100): 0
Plant response rating (0 = no effect, 100 = complete control), Sunflower ([1]; 62 g ai/ha): 0
Plant response rating, Sunflower [1, 2]: 0
Plant response rating, Sunflower [1, 3]: 0
Plant response rating, Crabgrass, Large (large crabgrass; [4]): 20
Plant response rating, Crabgrass, Large (large crabgrass; [5]): 60
Crabgrass, Large plant response rating (large crabgrass; Preemergence, 500 g ai/ha, visual rating, 0 to 100 scale (0 no effect, 100 complete control)): 40
Crabgrass, Large plant response rating (large crabgrass; Preemergence, 2000 g ai/ha, 0 to 100 scale, 0 no effect, 100 complete control): 80
Plant response rating, Nightshade (eastern black nightshade; 31 g ai/ha, scale 0 to 100): 0
Plant response rating (0 = no effect, 100 = complete control), Nightshade (eastern black nightshade; 62 g ai/ha): 0
Plant response rating, Nightshade (eastern black nightshade; [2]): 10
Plant response rating, Nightshade (eastern black nightshade; [3]): 90
Plant response rating, Kochia (kochia; 31 g ai/ha, scale 0 to 100): 0
Plant response rating (0 = no effect, 100 = complete control), Kochia (kochia; 62 g ai/ha): 20
Plant response rating, Kochia (kochia; [2]): 20
Plant response rating, Kochia (kochia; [3]): 30
Plant response rating, Foxtail, Giant (giant foxtail; 31 g ai/ha, scale 0 to 100): 0
Plant response rating (0 = no effect, 100 = complete control), Foxtail, Giant (giant foxtail; 62 g ai/ha): 20
Plant response rating, Foxtail, Giant (giant foxtail; [2]): 20
Plant response rating, Foxtail, Giant (giant foxtail; [3]): 30

CCc1nn(C(C)(C)C)nc1C(=O)Nc1cccc(C(=O)NC2CC2)c1 [Compound 417]
Plant response rating, Cupgrass, Woolly (woolly cupgrass; 62 g ai/ha, scale 0 to 100): 0
Plant response rating (0 = no effect, 100 = complete control), Cupgrass, Woolly (woolly cupgrass; 125 g ai/ha): 20
Plant response rating, Cupgrass, Woolly (woolly cupgrass; 250 g ai/ha, scale 0-100): 65
Plant response rating, Cupgrass, Woolly (woolly cupgrass; [6]): 85
Plant response rating, Pigweed (pigweed; 62 g ai/ha, scale 0 to 100): 100
Plant response rating (0 = no effect, 100 = complete control), Pigweed (pigweed; 125 g ai/ha): 100
Plant response rating, Pigweed (pigweed; [6]): 100
Plant response rating, Morningglory (morningglory; 62 g ai/ha, scale 0 to 100): 0
Plant response rating (0 = no effect, 100 = complete control), Morningglory (morningglory; 125 g ai/ha): 20
Plant response rating, Morningglory (morningglory; [6]): 95
Plant response rating, Sunflower ([1]; 62 g ai/ha, scale 0 to 100): 0
Plant response rating (0 = no effect, 100 = complete control), Sunflower ([1]; 125 g ai/ha): 0
Plant response rating, Sunflower [1, 6]: 0
Crabgrass, Large plant response rating (large crabgrass; [4]): 30
Plant response rating, Crabgrass, Large (large crabgrass; [5]): 85
Crabgrass, Large plant response rating (large crabgrass; Preemergence, 2000 g ai/ha, visual rating, 0 to 100 scale (0 no effect, 100 complete control)): 95
Crabgrass, Large plant response rating (large crabgrass; preemergence, 500 g ai/ha, visual injury, 0 to 100 scale (0 no effect, 100 complete control)): 75
Plant response rating, Nightshade (eastern black nightshade; 62 g ai/ha, scale 0 to 100): 55
Plant response rating (0 = no effect, 100 = complete control), Nightshade (eastern black nightshade; 125 g ai/ha): 60
Plant response rating, Nightshade (eastern black nightshade; [6]): 95
Plant response rating, Kochia (kochia; 62 g ai/ha, scale 0 to 100): 0
Plant response rating (0 = no effect, 100 = complete control), Kochia (kochia; 125 g ai/ha): 85
Plant response rating, Kochia (kochia; 250 g ai/ha, scale 0-100): 100
Plant response rating, Kochia (kochia; [6]): 100
Plant response rating, Foxtail, Giant (giant foxtail; 62 g ai/ha, scale 0 to 100): 65
Plant response rating (0 = no effect, 100 = complete control), Foxtail, Giant (giant foxtail; 125 g ai/ha): 90
Plant response rating, Foxtail, Giant (giant foxtail; 250 g ai/ha, scale 0-100): 95
Plant response rating, Foxtail, Giant (giant foxtail; [6]): 100

CCN(CC)C(=O)c1cccc(NC(=O)c2nn(C(C)(C)C)nc2C)c1 [Compound 418]
Plant response rating, Cupgrass, Woolly (woolly cupgrass; 62 g ai/ha, scale 0 to 100): 0
Plant response rating (0 = no effect, 100 = complete control), Cupgrass, Woolly (woolly cupgrass; 125 g ai/ha): 0
Plant response rating, Cupgrass, Woolly (woolly cupgrass; 250 g ai/ha, scale 0-100): 10
Plant response rating, Cupgrass, Woolly (woolly cupgrass; [6]): 95
Plant response rating, Pigweed (pigweed; 62 g ai/ha, scale 0 to 100): 100
Plant response rating (0 = no effect, 100 = complete control), Pigweed (pigweed; 125 g ai/ha): 100
Plant response rating, Pigweed (pigweed; [6]): 100
Plant response rating, Morningglory (morningglory; 62 g ai/ha, scale 0 to 100): 20
Plant response rating (0 = no effect, 100 = complete control), Morningglory (morningglory; 125 g ai/ha): 70
Plant response rating, Morningglory (morningglory; [6]): 100
Plant response rating, Sunflower ([1]; 62 g ai/ha, scale 0 to 100): 0
Plant response rating (0 = no effect, 100 = complete control), Sunflower ([1]; 125 g ai/ha): 0
Plant response rating, Sunflower [1, 6]: 0
Plant response rating, Nightshade (eastern black nightshade; 62 g ai/ha, scale 0 to 100): 95
Plant response rating (0 = no effect, 100 = complete control), Nightshade (eastern black nightshade; 125 g ai/ha): 95
Plant response rating, Nightshade (eastern black nightshade; [6]): 100
Plant response rating, Kochia (kochia; 62 g ai/ha, scale 0 to 100): 65
Plant response rating (0 = no effect, 100 = complete control), Kochia (kochia; 125 g ai/ha): 80
Plant response rating, Kochia (kochia; 250 g ai/ha, scale 0-100): 85
Plant response rating, Kochia (kochia; [6]): 95
Plant response rating, Foxtail, Giant (giant foxtail; 62 g ai/ha, scale 0 to 100): 65
Plant response rating (0 = no effect, 100 = complete control), Foxtail, Giant (giant foxtail; 125 g ai/ha): 95
Plant response rating, Foxtail, Giant (giant foxtail; 250 g ai/ha, scale 0-100): 100
Plant response rating, Foxtail, Giant (giant foxtail; [6]): 100
